Laboratory results as given in patent US9827187B2, “Filaggrin gene expression promoter” (Shiseido Company, Ltd., priority 2012, dated 2017).

Columns and labels:
filaggrin gene [1] = test: Filaggrin gene expression promotion by 1PP, zanthoxylum extract and their combination (QPCR, cultured keratinocytes); format: cell-based, human; details: agent at 0.1% in medium (combination: 0.1% each); keratinocytes collected after 18 hours; versus no-agent control; FIG. 4
filaggrin gene [2] = test: Screening pharmaceutical agents that promote filaggrin gene expression (QPCR, cultured keratinocytes); format: cell-based, human; details: candidate agent at 1% in medium; normal adult skin-derived keratinocytes; 18 hours after addition; relative to RPLP0; FIG. 3
Procedure: Commercially available normal adult skin-derived keratinocytes (Cellntec AG) were disseminated in a culture plate to a concentration of 3×10^3 cells/cm^2 followed by culturing in epithelial cell medium (CnT-BM.1, Cellntec AG) at 37° in a 5% CO2 atmosphere. Three days later, the medium was replaced with medium containing each of the candidate pharmaceutical agents at a concentration of 1% followed by continuing culturing at 37° C. and 5% CO2 and collecting the cells after 2 hours and after 18 hours. The candidate pharmaceutical agents added to the medium consisted of zanthoxylum extract (Maruzen Pharmaceuticals Co., Ltd.), geranium oil (Koei Kogyo Co., Ltd.), cypress oil (Bioland Co., Ltd.), rose oil (Bioland Co., Ltd.), galvanum oil (Bioland Co., Ltd.), pepper oil (Bioland Co., Ltd.), basil oil (Bioland Co., Ltd.), methyl-o-toluate (Aldrich Inc.), methyl anthranilate (Tokyo Chemical Industry Co., Ltd.), dimethyl anthranilate (Tokyo Chemical Industry Co., Ltd.), clove bud caryophyllata oil (Bioland Co., Ltd.) and arnica oil (Koei Kogyo Co., Ltd.). The absence of addition of pharmaceutical agent was used as a negative control, and cortisol (concentration in medium: 50 ng/mL) was used as a positive control.
RNA was extracted from the collected cells using a commercially available RNA extraction-cDNA synthesis kit (FastLane Cell cDNA Kit, Qiagen N.V.) to prepare cDNA. Filaggrin expression levels were measured by quantitative PCR (QPCR) using this cDNA. Expression levels of clock genes PER3 and BMAL1 were measured simultaneously and compared with the expression rhythm of filaggrin gene. A commercially available QPCR reagent kit (Brilliant III Ultra-Fast SYBR Green QPCR Kit, Agilent Technologies Inc.) and QPCR measurement system (MX-3000P Real-time Quantitative PCR System, Agilent Technologies Inc.) were used for QPCR. The expression level of a housekeeping gene in the form of RPLP0 gene was quantified for use as an internal standard, and the relative expression level with respect to PLP0 was calculated and used as the expression level of filaggrin gene. […]

With `O=C(O)CCN1CCCCC1` [1PP, 3-(1′-piperidine)propionic acid] the “effect of promoting filaggrin gene expression” value (filaggrin gene [1]) was “effect of promoting filaggrin gene expression that was comparable to that of zanthoxylum extract”.
`CNc1ccccc1C(=O)OC` [dimethyl anthranilate, 2-methyl aminomethylbenzoate] was tested, and the “expression of filaggrin gene after 18 hours in comparison with the negative control” value (from here on “expression of filaggrin gene”) (filaggrin gene [2]) was “promote expression of filaggrin gene”.
`COC(=O)c1ccccc1N` [methyl anthranilate, methyl 2-aminobenzoate] was tested, and the “expression of filaggrin gene” value (filaggrin gene [2]) was “promote expression of filaggrin gene”.
`COC(=O)c1ccccc1C` [methyl-o-toluate, methyl 2-methylbenzoate] was tested, and the “expression of filaggrin gene” value (filaggrin gene [2]) was “promote expression of filaggrin gene”.
